Reference: patent publication US20250127778A1, “CANCER IMMUNOTHERAPY COMPOSITION CONTAINING INTERACTION INHIBITOR OF STING AND TRIM29 AS ACTIVE INGREDIENT” (SPARK BIOPHARMA, INC, priority 2021, published 2025)

Columns and labels:
[1] = tested on: primary tumor and secondary tumor; experiment: Primary and secondary tumor model for anticancer immune system construction; format: in vivo, mouse; settings: FIG. 30
Description: It was verified whether, under the treatment of cGAMP and the compound of Formula 1 in combination, in addition to the results of increasing the antigen presentation efficacy that were confirmed in FIGS. 18 to 21, the anticancer immune system was constructed throughout the organism also in the animal model, so that activated cytotoxic T cells were able to remove cancer cells in other locations to which drugs are not injected.

[2] = tested on: STING subcytokines (IFN-β, IL-6, IL-15, IL-15Rα); experiment: qRT-PCR of STING subcytokine gene expression in Raw264.7 cells; format: cell-based, mouse; settings: time-dependent and concentration-dependent, FIG. 6
Procedure: In order to confirm whether the oxopiperazine derivatives of Formulas 1 to 6 increase the immune activation efficacy of the STING agonist cGAMP by increasing the amount of STING, the gene expression levels of the STING subcytokine interferon-beta (IFN-β), interleukin-6 (IL-6), interleukin-15 (IL-15), and interleukin-15 receptor alpha (IL-15Rα) were confirmed through quantitative real-time PCR (qRT-PCR) experiments.
Specifically, Raw264.7 cells were seeded in a transparent 12-well plate and cultured for one day. Thereafter, the cells were treated with cGAMP and the oxopiperazine derivatives of Formulas 1 to 6, respectively, and then cultured for six hours. Finally, after the supernatant culture medium of the cells was removed, the remaining supernatant was diluted with PBS (phosphate buffer saline) and removed to prepare qRT-PCR samples. mRNA was extracted from cells by using the RNeasy mini kit of QIAGEN according to the protocol of the manufacturer. After the concentration of RNA was measured by using Nanoview equipment of GE Healthcare, 1 μg RNA was quantified, and complementary DNA (cDNA) was synthesized by using the Accupower cyclescript RT premix dT20 (Bioneer) product according to the protocol of the manufacturer. […] The mixed samples were analyzed by using the StepOne Plus Real-Time PCR system (Applied Biosciences), and the results were plotted by using the Prism 8.0 program.

STING [3] = biological target: T1, STING (Mus musculus, UniProt Q3TBT3); experiment: CETSA and ITDRF in Raw264.7 cells, STING; format: binding; set-up: endogenous in cells; host or cells: Raw264.7
T1 sequence (Q3TBT3 1-378): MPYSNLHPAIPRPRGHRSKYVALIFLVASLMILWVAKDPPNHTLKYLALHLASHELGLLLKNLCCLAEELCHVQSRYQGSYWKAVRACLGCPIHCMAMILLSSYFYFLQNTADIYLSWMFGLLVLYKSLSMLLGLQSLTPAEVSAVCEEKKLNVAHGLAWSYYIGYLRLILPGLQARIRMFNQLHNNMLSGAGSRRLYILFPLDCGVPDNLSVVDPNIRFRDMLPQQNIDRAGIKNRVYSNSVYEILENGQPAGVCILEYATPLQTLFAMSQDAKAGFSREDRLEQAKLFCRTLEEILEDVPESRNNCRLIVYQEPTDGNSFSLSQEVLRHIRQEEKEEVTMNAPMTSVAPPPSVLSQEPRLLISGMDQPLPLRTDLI
Description: (§1) It was verified whether the oxopiperazine derivative of the present invention was bound to STING among STING and TRIM29 to inhibit interaction thereof, based on the compound of Formula 1, by the cellular thermal shift assay (CETSA) and the isothermal dose response fingerprint (ITDRF) which were major technologies for verifying the interaction between small molecule compounds and target proteins. (D. M. Molinaetal., Science 2013, 341, 84-87.)
(§2) To verify the target of the compound of Formula 1 using the CETSA technique, the human A431 cell lines and mouse Raw264.7 cell lines were seeded on a 100-mm or 150-mm culture dish and cultured for one day. […] Afterwards, centrifugation was performed at 20000 g for 20 minutes at 4° C., the supernatant was transferred to a new container, and each concentration was measured by using the Micro BCA™ protein assay kit (ThermoFisher) according to the protocol of the manufacturer. The concentration of each sample was equally adjusted by using the RIPA lysis buffer, the 5× SDS-PAGE loading buffer (Biosesang) was added according to the ratio of the manufacturer, and the resultant was treated at 95° C. for 5 minutes and analyzed by using the Western blotting method described above.

[4] = tested on: bone-marrow derived dendritic cells (BMDC) and OT-1 T cells; experiment: BMDC antigen presentation to OT-1 T cells with OVA antigen; format: cell-based, mouse; settings: OVA antigen directly treated, FIG. 18
Procedure: It was confirmed that the compound of Formula 1 increased the antigen presentation efficacy of bone-marrow derived dendritic cells (BMDC) of a STING agonist to cytotoxic T cells (CD8^+ T cells).
Specifically, mouse bone marrow-derived cells were obtained from the femur and tibia of 8-week-old female C57BL/6 mice. 2×10^6 of cells were cultured in 2 mL of a MLR medium (RPMI 1640 medium supplemented with 10% FBS, 1% 1M HEPES, 1% glutamine, and 1% antibiotic-antimycotic) supplemented with 10 ng/ml mGM-CSF and 5 ng/ml IL-4 to be differentiated into dendritic cells (BMDC). On the third day from the start of cell culturing, 2 mL of the MLR medium was added. Additionally, on the sixth day, 2×10^6 dendritic cells were treated with 50 μg/mL OVA protein and/or 100 ng/ml lipopolysaccharide (LPS), and cGAMP and/or the compound represented by Formula 1 at various concentrations. Thereafter, the cells were cultured at 37° C. in a 5% CO2 incubator for 24 hours, and then flow cytometry of dendritic cell activation markers (CD80, CD86, MHC II) was performed. Subsequently, 5×10^4 dendritic cells were incubated with 2×10^5 CFSE-labeled OT-1 T cells (OVA-specific CD8^+ T cells) to observe OT-1 T cell proliferation.

STING [5] = biological target: STING (Homo sapiens, UniProt Q86WV6); experiment: CETSA and ITDRF in A431 cells, STING; format: binding; set-up: endogenous in cells; host or cells: A431
Description: as §1, §2

[6] = combination with cGAMP compared with single administration of cGAMP

STING (Homo sapiens, UniProt Q86WV6), sequence (Q86WV6 whole entry H232R): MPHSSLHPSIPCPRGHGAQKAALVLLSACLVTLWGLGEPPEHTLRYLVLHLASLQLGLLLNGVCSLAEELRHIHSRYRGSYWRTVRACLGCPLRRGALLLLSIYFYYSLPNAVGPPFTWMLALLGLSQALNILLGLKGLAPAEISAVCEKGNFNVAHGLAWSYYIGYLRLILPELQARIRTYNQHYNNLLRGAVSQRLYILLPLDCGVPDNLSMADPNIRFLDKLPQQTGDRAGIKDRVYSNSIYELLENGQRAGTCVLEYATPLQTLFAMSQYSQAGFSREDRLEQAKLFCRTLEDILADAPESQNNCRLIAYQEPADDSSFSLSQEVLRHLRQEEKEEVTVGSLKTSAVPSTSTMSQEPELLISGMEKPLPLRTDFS

With COc1ccc(CC2=CN(c3ccc(C(=O)NC[C@H]4CCCO4)cc3[N+](=O)[O-])[C@H](C(C)C)C(=O)N2Cc2ccc(O)cc2)cc1 [Formula 1, 4-((R)-4-(4-hydroxybenzyl)-2-isopropyl-5-(4-methoxybenzyl)-3-oxo-3,4-dihydropyrazin-1 (2H)-yl)-3-nitro-N-(((R)-tetrahydrofuran-2-yl)methyl)benzamide] the “final tumor mass of primary tumor” value [1, 6] was “reduced”, the primary tumor growth [1, 6] was “inhibited” and the “tumor death in secondary carcinomas” value ([1]; secondary tumor not directly injected) was “tumor death also effectively occurred”. The “expression of IL-15 and IL-15Rα” value [2] was “increased”, the “CETSA thermal stability of STING” value (STING [3]; FIG. 13) was “induced thermal destabilization by selective binding only to STING” and the “ITDRF thermal stability of STING” value (STING [3]; FIG. 14) was “reduced the thermal stability of STING at high concentrations in a concentration-dependent manner”. For the same molecule, the “OT-1 T cell proliferation (BMDC activation by cGAMP and antigen presentation efficacy)” value [4] was “promoted cell proliferation in a concentration-dependent manner”, the “CETSA thermal stability of STING” value (STING [5]; FIG. 11) was “induced thermal destabilization by selective binding only to STING” and the “ITDRF thermal stability of STING” value (STING [5]; FIG. 12) was “reduced the thermal stability of STING at high concentrations in a concentration-dependent manner”.
